Test systems include M14; NCI-H23; OVCAR-8; UO-31; HL-60; U-251; SNB-75; COLO 205; MOLT-4; OVCAR-3; NCI-H460; OVCAR-5; HCT-15; HCT-116; IGROV-1; SF-268; SW-620; EKVX; SNB-19; UACC-62.
What all share (test): NCI tumour cell line growth inhibition, 48 h

Molecules are shown by their SMILES.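 96-well plates; 48 h exposure; 5 concentrations. Endpoints by linear interpolation between flanking doses. Not reached: highest tested concentration assigned. Abbreviation: GI50, concentration required for 50% inhibition of growth.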 Active and inactive are the calls of the source. No stated cut-off is given here; in the data, active = GI50 up to about 1.1 µM and inactive = higher. A value given as a limit tells only on which side of the number the result lay.

In the case of `NC(=O)Cn1c(=O)[nH]c(=O)c2[nH]cnc21`, the GI50 with M14, in the assay with NCI-H23, in the assay on OVCAR-8, in the assay on UO-31, with HL-60 and in the assay with U-251 was > 100 µM (inactive) in each case. Besides, the GI50 in the assay with SNB-75, in the assay on COLO 205, in the assay on MOLT-4, in the assay on OVCAR-3, with NCI-H460 and in the assay on OVCAR-5 was > 100 µM (inactive) throughout. Moreover, the GI50 in the assay on HCT-15 was over 100 µM; in the assay on HCT-116, > 100 µM (inactive); with IGROV-1 it was > 100 µM (inactive); in the assay with SF-268, > 100 µM (inactive); in the assay with SW-620, > 100 µM (inactive); in the assay with EKVX, > 100 µM (inactive). Moreover, the GI50 in the assay on SNB-19 and in the assay on UACC-62 was > 100 µM (inactive) each time.
As for `N#C/C(=C/n1c(=S)[nH]c2ccc([N+](=O)[O-])cc21)C(N)=O`, the GI50 in the assay with M14 was > 100 µM (inactive); with NCI-H23, > 100 µM (inactive); with OVCAR-8, > 100 µM (inactive); in the assay with UO-31, > 100 µM (inactive); with HL-60, 9.33 µM (inactive); in the assay with U-251, > 100 µM (inactive). The GI50 in the assay with SNB-75 was 19.7 µM (inactive); with COLO 205 it was > 100 µM (inactive); in the assay on MOLT-4, > 100 µM (inactive); in the assay with OVCAR-3, > 100 µM (inactive); with NCI-H460, > 100 µM (inactive); in the assay with OVCAR-5, > 100 µM (inactive). Also, the GI50 in the assay with HCT-15 was over 100 µM; in the assay with HCT-116 it was > 100 µM (inactive); in the assay with IGROV-1, > 100 µM (inactive); with SF-268, > 100 µM (inactive); with SW-620 it was > 100 µM (inactive); with EKVX it was 22.2 µM (inactive). Moreover, the GI50 in the assay with SNB-19 and with UACC-62 was > 100 µM (inactive) throughout.
Consider `O=C(O)CNC(=O)c1ccccc1O` [SALICYLURIC ACID], for which the GI50 in the assay with M14, with NCI-H23, with OVCAR-8, in the assay with UO-31, in the assay on HL-60 and with U-251 was > 100 µM (inactive) each time. Also, the GI50 in the assay with SNB-75, with COLO 205, in the assay on MOLT-4, in the assay with OVCAR-3, in the assay with NCI-H460 and in the assay with OVCAR-5 was > 100 µM (inactive) each time. Besides, the GI50 in the assay on HCT-15 was over 100 µM; in the assay on HCT-116, > 100 µM (inactive); in the assay with IGROV-1, > 100 µM (inactive); with SF-268 it was > 100 µM (inactive); in the assay with SW-620, > 100 µM (inactive); with EKVX it was > 100 µM (inactive). Besides, the GI50 in the assay on SNB-19 and in the assay with UACC-62 was > 100 µM (inactive) throughout.
On to `N#Cc1c(OCCF)c2ccccc2n2c1nc1ccccc12`, for which the GI50 is > 100 µM (inactive) in the assay on M14; 69 µM (inactive) with NCI-H23; 42.3 µM (inactive) with OVCAR-8; 14.2 µM (inactive) with UO-31; 97.7 µM (inactive) in the assay on HL-60; 37.6 µM (inactive) with U-251. Further, the GI50 in the assay with SNB-75 was 70.6 µM (inactive); in the assay with COLO 205, > 100 µM (inactive); in the assay on MOLT-4 it was 27.8 µM (inactive); in the assay with OVCAR-3, 67 µM (inactive); in the assay on NCI-H460, 21.7 µM (inactive); with OVCAR-5 it was > 100 µM (inactive). For the same compound, the GI50 with HCT-15 was 32.7 µM; in the assay on HCT-116 it was 11.2 µM (inactive); in the assay with IGROV-1 it was 23.8 µM (inactive); with SF-268, 27 µM (inactive); in the assay with SW-620 it was > 100 µM (inactive); in the assay with EKVX, 99.1 µM (inactive). Moreover, the GI50 with SNB-19 is 29.2 µM (inactive); in the assay on UACC-62 it was 48.6 µM (inactive).
As to `CON(C)c1nc(N(C)OC)nc(N(C)OC)n1`, the GI50 in the assay with M14, with NCI-H23, with OVCAR-8, in the assay with UO-31, with HL-60 and in the assay on U-251 was > 10 µM (inactive) in each case. The GI50 with SNB-75, with COLO 205, with MOLT-4, with OVCAR-3, in the assay with NCI-H460 and in the assay with OVCAR-5 was > 10 µM (inactive) each time. Moreover, the GI50 is over 10 µM in the assay with HCT-15; > 10 µM (inactive) in the assay with HCT-116; > 10 µM (inactive) with IGROV-1; > 10 µM (inactive) with SF-268; > 10 µM (inactive) with SW-620; > 10 µM (inactive) in the assay with EKVX. Moreover, the GI50 in the assay with SNB-19 and with UACC-62 was > 10 µM (inactive) each time.
With `O=C(N/N=C/c1cc(Br)cc(Br)c1O)c1ccccc1O`, the GI50 with M14 is 0.687 µM (active); with NCI-H23, 0.52 µM (active); in the assay on OVCAR-8, 0.463 µM (active); in the assay with UO-31, 0.695 µM (active); in the assay with HL-60, 0.15 µM (active); in the assay with U-251 it was 0.399 µM (active). The GI50 is 3.66 µM (inactive) in the assay on SNB-75; 3.34 µM (inactive) in the assay on COLO 205; 0.575 µM (active) in the assay with MOLT-4; 0.273 µM (active) with OVCAR-3; 0.64 µM (active) with NCI-H460; 0.723 µM (active) in the assay with OVCAR-5. Besides, the GI50 was 0.422 µM in the assay with HCT-15; 1.82 µM (inactive) with HCT-116; 0.867 µM (active) in the assay with IGROV-1; 0.469 µM (active) in the assay on SF-268; 0.773 µM (active) with SW-620; 1.18 µM (inactive) in the assay with EKVX. In addition, the GI50 is 0.912 µM (active) with SNB-19 and 0.368 µM (active) in the assay on UACC-62.
Turning to `COc1ccc(-n2sc3ncccc3c2=O)cc1`, the GI50 with M14 was 21.9 µM (inactive); in the assay with NCI-H23, 19.3 µM (inactive); in the assay with OVCAR-8, 26.8 µM (inactive); with UO-31 it was 19.1 µM (inactive); in the assay on HL-60 it was 3.58 µM (inactive); with U-251, 23.1 µM (inactive). In addition, the GI50 in the assay on SNB-75 was 23.6 µM (inactive); in the assay with COLO 205 it was 16.9 µM (inactive); in the assay on MOLT-4, 8.18 µM (inactive); with OVCAR-3 it was 23 µM (inactive); with NCI-H460 it was 34.6 µM (inactive); with OVCAR-5 it was 24.8 µM (inactive). Further, the GI50 in the assay on HCT-15 is 22.6 µM; in the assay with HCT-116 it was 17.7 µM (inactive); in the assay with IGROV-1 it was 23.6 µM (inactive); with SF-268 it was 24.7 µM (inactive); with SW-620 it was 32.1 µM (inactive); with EKVX, 14.8 µM (inactive). For the same compound, the GI50 was > 100 µM (inactive) in the assay on SNB-19 and 36.4 µM (inactive) with UACC-62.
On to `C1=N\CCOCC/N=C\c2ccc(cc2)OCc2cccc(n2)COc2ccc/1cc2`, for which the GI50 in the assay on M14, in the assay on NCI-H23, in the assay on OVCAR-8, in the assay on UO-31, in the assay on HL-60 and in the assay with U-251 was > 100 µM (inactive) each time. The GI50 in the assay with SNB-75 is > 100 µM (inactive); in the assay on COLO 205, > 100 µM (inactive); in the assay with MOLT-4 it was > 100 µM (inactive); in the assay on OVCAR-3, 37.6 µM (inactive); in the assay on NCI-H460 it was > 100 µM (inactive); in the assay with OVCAR-5, > 100 µM (inactive). The GI50 was over 100 µM in the assay on HCT-15; > 100 µM (inactive) in the assay with HCT-116; > 100 µM (inactive) with IGROV-1; > 100 µM (inactive) with SF-268; > 100 µM (inactive) in the assay with SW-620; > 100 µM (inactive) in the assay with EKVX. In addition, the GI50 in the assay on SNB-19 and with UACC-62 was > 100 µM (inactive) throughout.
For the compound `Cc1cc(C)nc(NS(=O)(=O)c2ccc(NNC(=O)c3cccc4c(=O)c5ccccc5[nH]c34)cc2)n1`, the GI50 in the assay with M14 was > 100 µM (inactive); in the assay on NCI-H23, 63 µM (inactive); in the assay with OVCAR-8, 83.4 µM (inactive); with UO-31, 41.6 µM (inactive); in the assay on HL-60, 41.2 µM (inactive); with U-251, 25.2 µM (inactive). Besides, the GI50 is 19.5 µM (inactive) in the assay on SNB-75; > 100 µM (inactive) in the assay on COLO 205; 49.8 µM (inactive) in the assay on MOLT-4; 37.3 µM (inactive) in the assay on OVCAR-3; 67.6 µM (inactive) in the assay with NCI-H460; 21.5 µM (inactive) in the assay with OVCAR-5. In addition, the GI50 with HCT-15 is 48.8 µM; with HCT-116, 48.9 µM (inactive); in the assay on IGROV-1 it was 36.7 µM (inactive); with SF-268 it was 43.2 µM (inactive); in the assay on SW-620 it was 83.8 µM (inactive); in the assay with EKVX it was 23.1 µM (inactive). Also, the figures for the GI50 with SNB-19 and with UACC-62 were 88.5 µM (inactive) and 71.6 µM (inactive), respectively.
For the compound `C=C1[C@H](OC(C)=O)[C@H]2[C@@H](OC(C)=O)[C@@H](C)C[C@]2(C)C(=O)[C@H](C)/C=C/C(C)(C)C(=O)[C@H](OCC(C)C)[C@H]1OC(C)=O`, the GI50 was > 25 µM (inactive) in the assay with M14; > 25 µM (inactive) with NCI-H23; > 25 µM (inactive) in the assay on OVCAR-8; > 25 µM (inactive) in the assay on UO-31; 7.57 µM (inactive) in the assay with HL-60; > 25 µM (inactive) in the assay on U-251. Further, the GI50 with SNB-75 was > 25 µM (inactive); in the assay with COLO 205, 12.9 µM (inactive); in the assay with MOLT-4, 20.7 µM (inactive); with OVCAR-3 it was > 25 µM (inactive); in the assay with NCI-H460, 12.6 µM (inactive); with OVCAR-5, > 25 µM (inactive). For the same compound, the GI50 in the assay on HCT-15 is over 25 µM; in the assay on HCT-116 it was > 25 µM (inactive); in the assay on IGROV-1, > 25 µM (inactive); with SF-268, > 25 µM (inactive); in the assay on SW-620, > 25 µM (inactive); in the assay on EKVX, > 25 µM (inactive). For the same compound, the GI50 with SNB-19 and with UACC-62 was > 25 µM (inactive) each time.

Values taken from ChEMBL document CHEMBL1201862, “PubChem BioAssay data set” (2004).
